Experimental data as given in US20020055458A1, “Method for the prevention and treatment of retinopathy” (priority 2000, published 2002).

What was measured:
[1] = tested on: diabetic retinopathy in patients with diabetes mellitus; assay: Retrospective clinical study of progression of diabetic retinopathy in diabetics on glaucoma eye drops; assay type: in vivo, human; settings: for two year event rate (progression of retinopathy): diabetic patients on eye drops for glaucoma or ocular hypertension, 2 years from onset of medication, CAI group n=19, non-CAI group n=12
Protocol: In a retrospective clinical study, the hypothesis that dorzolamide eye drops (Trusopt®) used bid or tid for glaucoma or ocular hypertension would slow the progression of diabetic retinopathy in patients with diabetes mellitus was tested. Since 1980, a screening program has been in place for diabetic eye disease at the Department of Ophthalmology, University of Iceland, Reykjavik, Iceland. Eye examinations of diabetic patients have been performed annually and examination results have been documented. A retrospective study was undertaken to find those diabetics who were using CAIs or beta-blockers (such as timolol) for either glaucoma or ocular hypertension. These candidates were selected from the general population of the screening program. In total, 31 patients were found. Of these 31, 19 were prescribed CAIs or a combination of CAIs and beta-blockers. The remaining 12 patients were taking a non-CAI medication and served as a control group in the study. The examination findings were reviewed to determine if the changes in retinopathy rating could be associated with CAI use. Also noted was historical information such as length of time since diabetes had been diagnosed, type of medication and time span of usage, visual acuity and other relevant comments. Of those using a CAI, 12 were men and seven were women. The mean age was 67 (range 28-80) for men and 73 (range 62-81) for women. The average time since diagnosis of diabetes mellitus was 14.1 years (SD=9.7 years). The average frequency of check-ups was every 9.1 months (SD=10.7 months). There was an average of 7.4 years of eye examinations and fundus photographs on record (SD=6 years) and the patients were on a CAI for an average of 18.2 months (SD=14.4 months). Of those in the non-CAI (control) group, seven were men and five were women. The mean age was 73 (range 54-82) for men and 75 (range 67-86) for women. The average time since diabetic diagnosis was 15.3 years (SD=7.8 years). The average frequency of check-ups was every 10.9 months (SD=7.9 months). There was an average of 6.2 years of eye examinations and fundus photographs on record (SD=4 years) and the patients were on medication for an average of 58.8 months (SD=52.4 months).

[2] = tested on: optic nerve oxygen tension (ONPo2); settings: pig; Stefánsson et al., IOVS 1999; cited from earlier work

Row | SMILES | two year event rate (progression of retinopathy) [1] [%] | overall event rate (retinopathy change) for the entire observation period ([1]; non-CAI (control) group, 12 diabetic patients, entire observation period) [%] | effect on optic nerve oxygen tension (ONPo2) [2] | development of sight-threatening retinopathy during the treatment period ([1]; diabetics in the treated group) | rate of progression of diabetic retinopathy compared with diabetics receiving timolol eye drops and with the total population of diabetics in Iceland ([1]; diabetics using eye drops on a regular basis)
1 | CC(C)(C)NC[C@H](O)COc1nsnc1N1CCOCC1 [timolol] | 8.3 | 25 | – | – | –
2 | CC(=O)Nc1nnc(S(N)(=O)=O)s1 [Acetazolamide, N-[5-(aminosulfonyl)-1,3,4-thiadiazol-2-yl]acetamide] | – | – | increased ONPo2 | – | –
3 | CCN[C@H]1C[C@H](C)S(=O)(=O)c2sc(S(N)(=O)=O)cc21 [dorzolamide] | 0 | – | increased ONPo2 | none | lower rate of progression of diabetic retinopathy
